Results on 14 molecules are retold here after ChEMBL document CHEMBL1687934, “The discovery of potent and long-acting oral factor Xa inhibitors with tetrahydroisoquinoline and benzazepine P4 motifs” (Bioorg Med Chem Lett, 2011).

What all share (type): ADME, organism-based
A short description of series [1]: Half life in iv or po dosed Sprague-Dawley rat. The note with it: in vivo.
Series [2] in a line: Volume of distribution at steady state in iv or po dosed Sprague-Dawley rat. The note with it: in vivo, read-out: Vdss.
Series [3] is described as follows: Plasma clearance in iv or po dosed Sprague-Dawley rat.
Series [4] in a line: Oral bioavailability in Sprague-Dawley rat. As to conditions: in vivo.

A value given as a limit tells only on which side of the number the result lay.

In turn, `O=C1[C@@H](NS(=O)(=O)c2ccc3cc(Cl)ccc3c2)CCN1c1ccc2c(c1F)CCNC2` gave a half-life in series [1] of 6.7 h. For the same molecule, the Vd in series [2] came out at 2.4 L/kg. The same molecule yielded a clearance in series [3] of 2.1 mL/min/kg.

The molecule `CN1CCc2cc(N3CC[C@H](NS(=O)(=O)/C=C/c4ccc(Cl)s4)C3=O)ccc2C1` showed a half-life in series [1] of 0.4 h. Also, the Vd in series [2] turned out to be 0.7 L/kg. This molecule returned a bioavailability in series [4] of 33%. Further, in series [3], the clearance was 26 mL/min/kg.

For `O=C1[C@@H](NS(=O)(=O)/C=C/c2ccc(Cl)s2)CCN1c1ccc2c(c1)CCNC2`, the half-life in series [1] was 3.5 h. In addition, the Vd in series [2] came to 0.9 L/kg. In series [3], this molecule displayed a clearance of 3 mL/min/kg.

In turn, `O=C1[C@@H](NS(=O)(=O)c2ccc3cc(Cl)ccc3c2)CCN1c1ccc2c(c1)CCNC2` gave a half-life in series [1] of 11 h. The Vd in series [2] came out at 3.6 L/kg. Also, in series [4], the bioavailability was determined as 24%. Also, the clearance in series [3] is 4 mL/min/kg.

Regarding `O=C1[C@@H](NS(=O)(=O)c2ccc3c(Cl)c[nH]c3c2)CCN1c1ccc2c(c1)CCNC2`, the half-life in series [1] is 6.3 h. Besides, the Vd in series [2] was determined as 2.9 L/kg. In series [4], this molecule returned a bioavailability of less than 1%. Moreover, in series [3], the clearance turned out to be 7.7 mL/min/kg.

Take `O=C1[C@@H](NS(=O)(=O)c2ccc3cc[nH]c3c2)CCN1c1ccc2c(c1)CCNC2`: the half-life in series [1] is 6.1 h. Also, the Vd in series [2] turned out to be 4.1 L/kg. The bioavailability in series [4] was less than 1%. In series [3], this molecule came in with a clearance of 12 mL/min/kg.

As for `O=C1[C@@H](NS(=O)(=O)c2ccc3cc(Cl)ccc3c2)CCN1c1cc2c(cc1F)CNCC2`, in series [1], the half-life is 7.5 h. For the same molecule, in series [2], the Vd came to 1 L/kg. The same molecule had a bioavailability in series [4] of 28%. Moreover, the clearance in series [3] is 1.7 mL/min/kg.

Take `O=C1[C@@H](NS(=O)(=O)/C=C/c2ccc(Cl)s2)CCN1c1ccc2c(c1F)CCNC2`: the half-life in series [1] is 3.3 h. Also, the Vd in series [2] was found to be 0.9 L/kg. This molecule also registered a bioavailability in series [4] of 68%. The same molecule returned a clearance in series [3] of 3 mL/min/kg.

For `O=C1[C@@H](NS(=O)(=O)/C=C/c2ccc(Cl)s2)CCN1c1cc2c(cc1F)CNCC2`, the half-life in series [1] was 4.9 h. For the same molecule, in series [2], the Vd came out at 0.5 L/kg. For the same molecule, in series [4], the bioavailability is 43%. The molecule further yielded a clearance in series [3] of 1.4 mL/min/kg.

Turning to `O=C1[C@@H](NS(=O)(=O)c2ccc3c(Cl)c[nH]c3c2)CCN1c1ccc2c(c1F)CCNC2`, the half-life in series [1] was 7.8 h. The Vd in series [2] was 1.5 L/kg. The molecule also returned a bioavailability in series [4] of 7%. For the same molecule, the clearance in series [3] amounted to 2.7 mL/min/kg.

As to `O=C1[C@@H](NS(=O)(=O)c2ccc3c(Cl)c[nH]c3c2)CCN1c1cc2c(cc1F)CNCC2`, the half-life in series [1] is 6.2 h. The Vd in series [2] was determined as 0.5 L/kg. Further, the bioavailability in series [4] amounted to 6%. Further, the clearance in series [3] was determined as 1.3 mL/min/kg.

For the molecule `O=C1[C@@H](NS(=O)(=O)/C=C/c2ccc(Cl)s2)CCN1c1ccc2c(c1)CCCNC2`, the half-life in series [1] was 4.4 h. Besides, the Vd in series [2] came out at 2.6 L/kg. Moreover, the bioavailability in series [4] is 45%. Further, the clearance in series [3] stood at 7.8 mL/min/kg.

Molecule `O=C1[C@@H](NS(=O)(=O)c2ccc3cc(Cl)ccc3c2)CCN1c1ccc2c(c1)CCCNC2` showed a half-life in series [1] of 9.7 h. In series [2], the Vd was 5.5 L/kg. In series [4], this molecule gave a bioavailability of 10%. The molecule also displayed a clearance in series [3] of 6.8 mL/min/kg.

`CN[C@@H](C)c1ccc(N2CC[C@H](NS(=O)(=O)c3ccc4cc(Cl)ccc4c3)C2=O)c(F)c1`: the half-life in series [1] is 18 h. In series [2], the Vd is 2.4 L/kg. This molecule showed a bioavailability in series [4] of more than 10%. This molecule returned a clearance in series [3] of 1.6 mL/min/kg.
